{
  "source": "patent US20250207102A1",
  "about": "“METHODS FOR CO-CULTURING GENOTOXIC BACTERIA AND ORGANOIDS” (priority 2022, published 2025)",
  "origin": "cited, not measured here",
  "data": [
    {"smiles": "Cc1cccc(-c2nn(C(=S)Nc3ccccc3)cc2-c2ccnc3ccccc23)n1", "note": "[A83-01]", "values": [
      {"measurement": "phosphorylation of Smad2", "setting": "Smad2", "value": "blocks phosphorylation of Smad2"},
      {"measurement": "inhibition of ALK-1,-2,-3,-6 and MAPK activity", "setting": "ALK-1,-2,-3,-6 and MAPK", "value": "only weakly inhibits"}
    ]}
  ]
}
